Source: patent US10111874B2, “Combination therapies for treatment of cancer” (Araxes Pharma LLC, priority 2014, dated 2018)

molecular target: T1, KRAS G12C 1-169, his-tagged protein, GDP-loaded (Homo sapiens, UniProt P01116, G12C); experiment: Biochemical assay: covalent binding to KRAS G12C analyzed by mass spectrometry; conditions: compounds 1-47, measured at 24 h; note: test concentration or dose not given here
T1 construct: KRAS G12C 1-169, his-tagged protein, GDP-loaded
T1 sequence (P01116 1-169 isoform P01116-2 G12C): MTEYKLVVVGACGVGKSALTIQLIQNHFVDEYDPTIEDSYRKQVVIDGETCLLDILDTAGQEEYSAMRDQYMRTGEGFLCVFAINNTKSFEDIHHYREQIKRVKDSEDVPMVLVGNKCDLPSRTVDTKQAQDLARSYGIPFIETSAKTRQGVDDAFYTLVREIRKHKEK

Row | Compound | Binding %
1 | C=CC(=O)N1CCN(c2c(C#N)cnc3cc(Cl)c(-c4ccc(Cl)cc4)cc23)CC1 [Compound I-42, 4-(4-acryloylpiperazin-1-yl)-7-chloro-6-(4-chlorophenyl)quinoline-3-carbonitrile] | +++ (+++indicates binding activity greater than 50% and up to 75%)
2 | C=CC(=O)N1CCN(c2ncnc3cc(Cl)c(-c4cc(Cl)ccc4Cl)cc23)CC1 [Compound I-9, 1-(4-(7-chloro-6-(2,5-dichlorophenyl)quinazolin-4-yl)piperazain-1-yl)prop-2-en-1-one] | +++ (+++indicates binding activity greater than 50% and up to 75%)

same assay, conditions: compounds 48-246, measured at 2 h

Row | Compound | Binding %
3 | C=CC(=O)N1CCN(c2ncnc3cc(Cl)c(-c4ccc(Cl)cc4)cc23)CC1CN(C)C (stereo not shown) [Compound I-60, 1-(4-(7-chloro-6-(4-chlorophenyl)quinazolin-4-yl)-2-((dimethylamino)methyl)piperazin-1-yl)prop-2-en-1-one] | + (+indicates binding activity from 5% to 25%)
4 | C#CC1CN(c2ncnc3cc(-c4ccc(F)cc4F)c(Cl)cc23)CCN1C(=O)C=C (stereo not shown) [Compound I-195, 1-(4-(6-chloro-7-(2,4-difluorophenyl)quinazolin-4-yl)-2-ethynylpiperazin-1-yl)prop-2-en-1-one] | ++++ (++++indicates binding activity greater than 75%)
5 | C=CC(=O)N1CCN(c2ncnc3cc(Cl)c(-c4ccccc4)cc23)CC1C#N (stereo not shown) [Compound I-52, 1-acryloyl-4-(7-chloro-6-phenylquinazolin-4-yl)piperazine-2-carbonitrile] | ++++ (++++indicates binding activity greater than 75%)
6 | C=CC(=O)N1CCN(c2ncnc3cc(-n4cc(Cl)ccc4=O)c(Cl)cc23)CC1 [Compound I-177, 1-(4-(4-acryloylpiperazin-1-yl)-6-chloroquinazolin-7-yl)-5-chloropyridin-2(1H)-one] | + (+indicates binding activity from 5% to 25%)
7 | C=CC(=O)N1CCN(c2ccnc3cc(-c4ccccc4)c(Cl)cc23)CC1 [Compound I-91, 1-(4-(6-chloro-7-phenylquinolin-4-yl)piperazin-1-yl)prop-2-en-1-one] | ++ (++indicates binding activity greater than 25% and up to 50%)
8 | C=CC(=O)N1CCN(c2ncnc3cc(-c4ccccc4-c4cn[nH]c4)c(Cl)cc23)CC1 [Compound I-183, 1-(4-(7-(2-(1H-pyrazol-4-yl)phenyl)-6-chloroquinazolin-4-yl)piperazin-1-yl)prop-2-en-1-one] | +++ (+++indicates binding activity greater than 50% and up to 75%)
9 | C=CC(=O)N1CCN(c2ncnc3ccc(-c4ccc(Cl)cc4)cc23)CC1 [Compound I-71, 1-(4-(6-(4-chlorophenyl)quinazolin-4-yl)piperazin-1-yl)prop-2-en-1-one] | + (+indicates binding activity from 5% to 25%)
10 | C=CC(=O)N1CCN(c2ncnc3cc(-c4ccc(F)cc4F)c(Cl)cc23)CC1C#N (stereo not shown) [Compound I-145, 1-acryloyl-4-(6-chloro-7-(2,4-difluorophenyl)quinazolin-4-yl)piperazine-2-carbonitrile] | ++++ (++++indicates binding activity greater than 75%)
11 | C=CC(=O)N1CCN(c2ncnc3cc(-c4c(F)cccc4F)c(Cl)cc23)CC1 [Compound I-132, 1-(4-(6-chloro-7-(2,6-difluorophenyl)quinazolin-4-yl)piperazin-1-yl)prop-2-en-1-one] | +++ (+++indicates binding activity greater than 50% and up to 75%)
12 | C=CC(=O)N1CCN(c2ncnc3cc(-c4ccccc4-c4cncs4)c(Cl)cc23)CC1 [Compound I-187, 1-(4-(6-chloro-7-(2-(thiazol-5-yl)phenyl)quinazolin-4-yl)piperazin-1-yl)prop-2-en-1-one] | +++ (+++indicates binding activity greater than 50% and up to 75%)
13 | C=CC(=O)N1CCN(c2ncnc3cc(-c4ccccc4F)c(Cl)cc23)CC1CC#N (stereo not shown) [Compound I-106] | ++++ (++++indicates binding activity greater than 75%)
14 | C=CC(=O)N1CCN(c2ncnc3cc(-c4cc(C5CC5)ccc4F)c(Cl)cc23)CC1 [Compound I-147, 1-(4-(6-chloro-7-(5-cyclopropyl-2-fluorophenyl)quinazolin-4-yl)piperazin-1-yl)prop-2-en-1-one] | ++ (++indicates binding activity greater than 25% and up to 50%)
15 | C=CC(=O)N1CCN(c2ncnc3cc(-c4ccccc4F)c(Cl)cc23)CC1 [Compound I-81, 1-(4-(6-chloro-7-(2-fluorophenyl)quinazolin-4-yl)piperazin-1-yl)prop-2-en-1-one] | +++ (+++indicates binding activity greater than 50% and up to 75%)
16 | C=CC(=O)N1CCN(c2ncnc3cc(-c4ccccc4C(N)=O)c(C(F)(F)F)cc23)CC1 [Compound I-211, 2-(4-(4-acryloylpiperazin-1-yl)-6-(trifluoromethyl)quinazolin-7-yl)benzamide] | + (+indicates binding activity from 5% to 25%)
17 | C=CC(=O)N1CCN(c2ncnc3cc(-c4cc(Cl)ccc4F)c(Cl)cc23)CC1 [Compound I-115, 1-(4-(6-chloro-7-(5-chloro-2-fluorophenyl)quinazolin-4-yl)piperazin-1-yl)prop-2-en-1-one] | +++ (+++indicates binding activity greater than 50% and up to 75%)

same assay, conditions: compounds 247-342, measured at 30 min

Row | Compound | Binding %
18 | Cc1coc(/C=C(\C#N)C(=O)N2CCN(c3ncnc4cc(-c5ccccc5F)c(Cl)cc34)CC2)n1 [Compound I-259, (E)-2-(4-(6-chloro-7-(2-fluorophenyl)quinazolin-4-yl)piperazine-1-carbonyl)-3-(4-methyloxazol-2-yl)acrylonitrile] | +++ (+++indicates binding activity greater than 50% and up to 75%)
19 | N#C/C=C\C(=O)N1CCN(c2ncnc3cc(-c4ccc(F)cc4F)c(Cl)cc23)CC1 [Compound I-263, (Z)-4-(4-(6-chloro-7-(2,4-difluorophenyl)quinaozlin-4-yl)piperazin-1-yl)-4-oxobut-2-enenitrile] | + (+indicates binding activity from 5% to 25%)
20 | C=CC(=O)N1CCN(c2nc(OCCN(C)C)nc3c(F)c(-c4c(C)ccc5[nH]ncc45)c(Cl)cc23)CC1 [Compound 323, 1-(4-(6-chloro-2-(2-(dimethylamino)ethoxy)-8-fluoro-7-(5-methyl-1H-indazol-4-yl)quinazolin-4-yl)piperazin-1-yl)prop-2-en-1-one] | +++ (+++indicates binding activity greater than 50% and up to 75%)
21 | C=CC(=O)N1CCN(c2ncnc3c(F)c(-c4c(C)ccc5[nH]ncc45)c(Cl)cc23)CC1CC#N (stereo not shown) [Compound I-294] | ++++ (++++indicates binding activity greater than 75%)
22 | C=CC(=O)N1CCN(c2ncnc3c(F)c(-c4c(C)ccc5[nH]ncc45)c(Cl)cc23)CC1 [Compound 334, 1-(4-(6-chloro-8-fluoro-7-(5-methyl-1H-indazol-4-yl)quinazolin-4-yl)piperazin-1-yl)prop-2-en-1-one] | ++++ (++++indicates binding activity greater than 75%)
23 | C=CC(=O)N1CCN(c2ncnc3c(F)c(-c4c(C)ccc5[nH]ncc45)c(F)cc23)CC1 [Compound 297, 1-(4-(6,8-difluoro-7-(5-methyl-1H-indazol-4-yl)quinazolin-4-yl)piperazin-1-yl)prop-2-en-1-one] | + (+indicates binding activity from 5% to 25%)
24 | NC/C=C/C(=O)N1CCN(c2ncnc3c(F)c(-c4cc(O)cc5ccccc45)c(Cl)cc23)CC1 [Compound 335, (E)-4-amino-1-(4-(6-chloro-8-fluoro-7-(3-hydroxynaphthalen-1-yl)quinazolin-4-yl)piperazin-1-yl)but-2-en-1-one] | ++++ (++++indicates binding activity greater than 75%)
25 | C=CC(=O)N1CCN(c2nc(OCCN(C)C)nc3cc(-c4c(C)ccc5[nH]ncc45)c(Cl)cc23)CC1 [Compound 314, 1-(4-(6-chloro-2-(2-(dimethylamino)ethoxy)-7-(5-methyl-1H-indazol-4-yl)quinazolin-4-yl)piperazin-1-yl)prop-2-en-1-one] | ++++ (++++indicates binding activity greater than 75%)
26 | C=CC(=O)N1CCN(c2c(C#N)cnc3c(F)c(-c4c(C)ccc5[nH]ncc45)c(Cl)cc23)CC1 [Compound I-293, 4-(4-acryloylpiperazin-1-yl)-6-chloro-8-fluoro-7-(5-methyl-1H-indazol-4-yl)quinoline-3-carbonitrile] | ++++ (++++indicates binding activity greater than 75%)
27 | C=CC(=O)N1CCN(c2ncnc3c(F)c(-c4cccc5c(C)n[nH]c45)c(Cl)cc23)CC1 [Compound 324, 1-(4-(6-chloro-8-fluoro-7-(3-methyl-1H-indazol-7-yl)quinazolin-4-yl)piperazin-1-yl)prop-2-en-1-one] | + (+indicates binding activity from 5% to 25%)

same assay, conditions: determined at 2 hrs

Row | Compound | Binding %
28 | C=CC(=O)N1CC(N2CCN(C(=O)CNc3cc(C4CC4)c(Cl)cc3O)C[C@H]2CO)C1 [II-63, (S)-1-(3-(4-(2-(4-chloro-5-cyclopropyl-2-hydroxyphenyl-amino)acetyl)-2-(hydroxymethyl)-piperazin-1-yl)azetidin-1-yl)prop-2-en-1-one] | ++ (++indicates binding activity greater than 20%)
29 | C=CC(=O)N1CC(N2CCN(C(=O)CNc3cc(C4CC4)c(Cl)cc3O)CC2C)C1 (stereo not shown) [II-60, 1-(3-(4-(2-((4-Chloro-5-cyclopropyl-2-hydroxyphenyl)amino)acetyl)-2-methylpiperazin-1-yl)azetidin-1-yl)prop-2-en-1-one] | ++ (++indicates binding activity greater than 20%)
30 | C=CC(=O)N1CC(N2CCN(C(=O)CNc3cc(C4CC4)c(Cl)cc3O)CC2CO)C1 (stereo not shown) [II-54, 1-(3-(4-(2-(4-Chloro-5-cyclopropyl-2-hydroxyphenylamino)acetyl)-2-(hydroxymethyl)piperazin-1-yl)azetidin-1-yl)prop-2-en-1-one] | ++ (++indicates binding activity greater than 20%)

same assay, conditions: determined at 24 hrs

Row | Compound | Binding %
31 | C=CC(=O)N1CC(N2CCN(C(=O)C(CC)Nc3cc(Cl)c(Cl)cc3O)CC2)C1 (stereo not shown) [II-49, 1-(4-(1-acryloylazetidin-3-yl)piperazin-1-yl)-2-(4,5-dichloro-2-hydroxyphenyl-amino)butan-1-one] | ++++ (++++indicates binding activity greater than 50%)
